Data from article PMC5382548 (Scientific Reports, 2015).
Values joined by “and” are separate entries in the source; they are usually repeats but may differ in a detail not shown here. Equal entries are not always repeated.

Assays:
[1] = tested on: Panc1 (chemo-resistant pancreatic); assay: SRB short-term cytotoxicity assay, Panc1; format: cell-based; details: Homo sapiens, PANC-1, 96 h
Method: Short-term anti-proliferative assays were carried out by two different assays using a panel of human cancer and non-malignant human cell lines. […] The transformed human embryonic kidney cell line HEK293T (wt KRAS) was sensitive to all tested drugs, including TMPyP4, a cationic porphyrin established as a G4 ligand, as well as the anticancer drug 5-fluorouracil (5-FU).
Human cell lines, breast carcinoma (MCF7), lung carcinoma (A549), pancreatic cancer (MIA PaCa2, Panc-1), immortalised telomerase-negative human lung fibroblast (ALT) and normal human lung fibroblast (WI-38), were all purchased from American Type Cell Culture (ATCC). Cell lines were maintained in appropriate medium supplemented with 10% fetal bovine serum (Invitrogen, UK), 2 mM L-glutamine (Invitrogen, Netherlands), and other components as specified by the suppliers. All cell lines were maintained at 37°C, 5% CO2, and routinely passaged. Short-term growth inhibition was measured using the SRB assay as described previously[43] (additional details described in Supplementary Information). […]
Sulforhodamine B (SRB) short-term cytotoxicity assay
Cells were seeded at appropriate densities into the wells of 96 well plates in their corresponding medium and incubated overnight to allow the cells to attach. Subsequently cells were exposed to various concentrations of freshly made solutions of drugs and incubated for 96 h. The cells were subsequently fixed with ice-cold trichloacetic acid (TCA) (10%, w/v) for 30 min and stained with 0.4% SRB dissolved in 1% acetic acid for 15 min.
All incubations were carried out at room temperature except for TCA fixation, which was at 4 °C. The IC50 value, the concentration required to inhibit cell growth by 50%, was determined from the mean absorbance at 540 nm for each drug concentration expressed as a percentage of the control untreated well absorbance. (Performed at School of Pharmacy, University College of London). […]
(#sc-30/sc-126; Santa Cruz Biotechnology Inc., Santa Cruz, CA, USA). […]

[2] = tested on: KRAS21R G4; assay: Spectrofluorimetric titration with KRAS21R G4; format: binding, human; details: for Apparent association constant Ka (KRAS21R): ligand 1 μM, K-cacodylate pH 7.4, 60 mM K+, 25°C; for Hill constant h (KRAS21R): one-site saturation binding Hill slope model
Method: To characterize the binding of IQc to DNA structures, spectrofluorimetric titration assays were performed with the non-substituted (2a), mono-alkyldiamine (2d) and di-alkyldiamine (3e) derivatives using un-labelled KRAS21R G4 and 26ds-DNA. […] Their fluorescence intensity was proportional to concentration up to 10 μM. […] The fluorescence titration data (Figure 4) was fitted to the Scatchard model[25] (Figure 4, insets). […] Scatchard plots of 2d and 3e (Figure 4b–c, insets) are all concave-down nonlinear curves, which may denote different positive cooperative binding sites in G4, with more than one equivalent and non-independent binding sites. […] Therefore, association constants for 2d and 3e were obtained from the one-site saturation binding Hill slope model (Figure 4b–c). These are apparent binding constants, i.e. they are macroscopic Ka which reflect the total binding.
Figure 4 Fluorescence data of (a) 2a, (b) 2d, and (c) 3e (1 μM) in K-cacodylate buffer (pH 7.4, containing 60 mM K^+) at 25°C, titrated with KRAS21R and HT21 G4s, and 26ds, fitted to the saturation binding equations and Scatchard model (insets).
Fluorescence data were collected with a λex of 290 nm and a λem around 475 nm for 2d and 3e, and a λex of 275 nm and a λem around 460 for 2a. Test compounds were prepared as 1 mM in HPLC-grade water (10% DMSO) stock solutions. The rest of the dilutions were performed using K-cacodylate buffer (pH = 7.4, containing 60 mM K^+). The G4 single-strand oligonucleotide sequences were initially diluted from the storage solution (100 μM) with K-cacodylate, to a stock solution at 25 μM. The titration data were obtained by adding aliquots of previously annealed G4 (heating to 95°C for 10 min, followed by slow cooling to RT) to a solution of the indolo[3,2-c]quinoline ligand (1 μM) in K-cacocylate buffer at 25°C (additional details in Supplementary Information).
Figure S7. Fluorescence titrations of 1 μM indolo[3,2-c]quinoline 2d (1µM) with KRAS21R G4 and 26ds DNA in K-cacodylate buffer pH 7.4, containing 60 mM K+ at 25 °C.
Concentration of DNA increase from the top to the bottom (grey lines) Excitation […]
Figure S8. Fluorescence titrations of 1 μM indolo[3,2-c]quinoline 3e (1µM) with KRAS21R […]
The titration data obtained were used to construct Scatchard plots with the concentration of bound and free ligand (Cb and Cf, respectively). […]
number of moles of ligand bound to 1 mol of G4 (r = Cb/CDNA) were calculated.
Saturation binding isotherms were represented as Scatchard plots, by plotting r/Cf versus r and evaluated according to the model of McGhee and von Hippel. Dissociation constants were determined by fitting the titration experimental data to one-site saturation binding equation or to one-site saturation binding to the Hill slope equation supplied with the GraphPad PRISM software (GraphPad, Version 5.00, San Diego, CA).
Association constants (Ka) were calculated from dissociation constants (Kd). Scatchard lines represented in the Scatchard plots were calculated from the data fitting to the binding equations (x = 0, y = Fmax/Kd; x = Fmax , y = 0; slope = -Ka). […]

Compound | IC50 [1] [nM] | Apparent association constant Ka (KRAS21R) [2] | Hill constant h (KRAS21R) [2]
CCN(CC)CCCNc1ccc2c(c1)c1[nH]c3ccccc3c1c[n+]2C [2d] | 220 | 4.4e+06 M⁻¹ | 2.0
CCN(CC)CCCNc1ccc2c(c1)[nH]c1c2c[n+](C)c2ccc(NCCCN(CC)CC)cc12.[Cl-] [3e] | 4800 | 8.6e+06 M⁻¹ | 2.4
Cn1cc2c3ccccc3nc-2c2cc(Br)ccc21 [2a, 2-bromo-5-methyl-indolo[3,2-c]quinoline] | 2750 | 1.7 × 10^6 M^−1 and 1.7/-- × 10^6 M^−1 | 
